binding, Tm and IC50 data for 1 molecule are collected here from publication PMC5085154 (2016).

Usually IC50 stands for the concentration needed to halve the response being measured.

The subject of assay [1] is dT21 (DNA, single strand) TTTTTTTTTTTTTTTTTTTTT
Description: competition dialysis. The note with it: Na+ 100 mM; 10 mM Tris-HCl, pH 7.2, room temperature; 1 μM compound; bound amount in figure.

In assay [2] the test system is Pu27 (DNA, G4) TGGGGAGGGTGGGGAGGGTGGGGAAGG
The assay is described as follows: CD spectroscopy. The note with it: none (salt-free); 10 mM Tris-HCl, pH 7.2; 5 μM DNA; induces parallel G-quadruplex.

The test system of assay [3] is HTC21 (DNA, i motif) CCCTAACCCTAACCCTAACCC
The assay is described as follows: competition dialysis. The note with it: Na+ 100 mM; 10 mM Tris-HCl, pH 7.2, room temperature; 1 μM compound; bound amount in figure.

Assay [4] concerns dA21 (DNA, single strand) AAAAAAAAAAAAAAAAAAAAA
The assay is described as follows: competition dialysis. The note with it: Na+ 100 mM; 10 mM Tris-HCl, pH 7.2, room temperature; 1 μM compound; bound amount in figure.

Assay [5] deals with 2(dT21):dA21 (DNA, triplex) AAAAAAAAAAAAAAAAAAAAA/TTTTTTTTTTTTTTTTTTTTT
The assay is described as follows: competition dialysis. The note with it: Na+ 100 mM; 10 mM Tris-HCl, pH 7.2, room temperature; 1 μM compound; bound amount in figure.

Assay [6] relates to HTds (HTC21:HTG21) (DNA, duplex) GGGTTAGGGTTAGGGTTAGGG/CCCTAACCCTAACCCTAACCC
Description: competition dialysis. The note with it: Na+ 100 mM; 10 mM Tris-HCl, pH 7.2, room temperature; 1 μM compound; bound amount in figure.

In assay [7] the test system is FPu18T (Pu18) (DNA, G4) AGGGTGGGGAGGGTGGGG
Description: FRET melting. The note with it: K+ (KCl, concentration not given); pH 7.2; Tm with ligand, "up to", not a shift; compound 2 μM (from mixing volumes), DNA 0.2 μM.

Assay [8] concerns HTG21mu (DNA, single strand) GAGTTAGAGTTAGAGTTAGAG
The assay is described as follows: competition dialysis. The note with it: Na+ 100 mM; 10 mM Tris-HCl, pH 7.2, room temperature; 1 μM compound; bound amount in figure.

Assay [9] concerns HTG21 (DNA, G4) GGGTTAGGGTTAGGGTTAGGG
Description: competition dialysis. The note with it: Na+ 100 mM; 10 mM Tris-HCl, pH 7.2, room temperature; 1 μM compound; bound amount in figure.

Assay [10] relates to HT-7 (DNA, G4) TTAGGGT. Description: competition dialysis. The note with it: Na+ 100 mM; 10 mM Tris-HCl, pH 7.2, room temperature; 1 μM compound; bound amount in figure.
Assay [11] deals with Pu27 (DNA, G4) TGGGGAGGGTGGGGAGGGTGGGGAAGG
The assay is described as follows: CD titration. The note with it: K+ 100 mM; 10 mM Tris-HCl, pH 7.2; 5 μM DNA; 0-5 mol equiv compound.

Assay [12] has the same test system. Description: PCR stop assay. The note with it: apparent; Taq polymerase, Pu27rev reverse primer, 10 cycles, 58°C annealing; gel densitometry.
Assay [13] has the same test system. Description: competition dialysis. The note with it: Na+ 100 mM; 10 mM Tris-HCl, pH 7.2, room temperature; 1 μM compound; strongest of set; bound amount in figure.

On to `CN(C)CCCNCCC(=O)Nc1ccc(C(=O)Nc2cc(Cl)ccc2-c2nc(NCCCN(C)C)c3ccccc3n2)cc1`, for which the binding entry in assay [1] is listed as “weak”; in assay [2], “yes”; in assay [3], “yes”; in assay [4] it was “weak”; in assay [5], “weak”; in [6], “weak”. Besides, the binding result in assay [8] was “weak”; in assay [9] it was “yes”; in [10] it was “yes”; in assay [11], “yes”; in assay [13], “yes”. Also, the Tm in assay [7] was found to be 77.5 °C. Further, the IC50 in assay [12] came to 2130 nM.
